Source: ChEMBL document CHEMBL1201862, “PubChem BioAssay data set” (2004)
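Step 1: Grow cells in 96-well plates. Step 2: Expose to compound for 48 hours at 5 concentrations. Step 3: Interpolate endpoints linearly; if unreached, use highest concentration. GI50 is the concentration that inhibits growth by half.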 Active and inactive are the calls of the source. Rule as the data show it: active = GI50 up to about 1.1 µM and inactive = higher.

What was measured:
Test in all cases: NCI-60 cell line screen, 48 h
786-0 = tested on: 786-0
A549 = tested on: A549
ACHN = tested on: ACHN
CAKI-1 = tested on: CAKI-1
CCRF-CEM = tested on: CCRF-CEM
COLO 205 = tested on: COLO 205
DLD-1 = tested on: DLD-1
DMS-273 = tested on: DMS-273
EKVX = tested on: EKVX
HCT-15 = tested on: HCT-15
HL-60 = tested on: HL-60
HOP-18 = tested on: HOP-18
HOP-62 = tested on: HOP-62
HOP-92 = tested on: HOP-92
HT-29 = tested on: HT-29
IGROV-1 = tested on: IGROV-1
K562 = tested on: K562
KM-20L2 = tested on: KM-20L2
LOX IMVI = tested on: LOX IMVI
M14 = tested on: M14
M19-MEL = tested on: M19-MEL
MOLT-4 = tested on: MOLT-4
Malme-3M = tested on: Malme-3M
NCI-H23 = tested on: NCI-H23
NCI-H460 = tested on: NCI-H460
OVCAR-3 = tested on: OVCAR-3
OVCAR-4 = tested on: OVCAR-4
OVCAR-8 = tested on: OVCAR-8
RPMI-8226 = tested on: RPMI-8226
RXF 393 = tested on: RXF 393
SF-295 = tested on: SF-295
SF-539 = tested on: SF-539
SK-MEL-28 = tested on: SK-MEL-28
SK-MEL-5 = tested on: SK-MEL-5
SK-OV-3 = tested on: SK-OV-3
SN12C = tested on: SN12C
SNB-19 = tested on: SNB-19
SNB-75 = tested on: SNB-75
SNB-78 = tested on: SNB-78
SW-620 = tested on: SW-620
TK-10 = tested on: TK-10
U-251 = tested on: U-251
UACC-257 = tested on: UACC-257
UACC-62 = tested on: UACC-62
UO-31 = tested on: UO-31
XF498 = tested on: XF498
A498 = tested on: A498
DMS-114 = tested on: DMS-114
HCC 2998 = tested on: HCC 2998
HCT-116 = tested on: HCT-116
KM12 = tested on: KM12
MCF7 = tested on: MCF7
NCI-H226 = tested on: NCI-H226
NCI-H522 = tested on: NCI-H522
NCI/ADR-RES = tested on: NCI/ADR-RES
OVCAR-5 = tested on: OVCAR-5
SF-268 = tested on: SF-268
SK-MEL-2 = tested on: SK-MEL-2

In the case of CC1OC(n2ccc(=O)[nH]c2=O)C=C(OC(=O)c2ccccc2)C1=O (stereo not given), the GI50 (786-0) is reported as > 100 µM (inactive), the GI50 (A549) is reported as 39.3 µM (inactive) and the GI50 (ACHN) is reported as 76.7 µM (inactive). The GI50 (CAKI-1) was 42.6 µM (inactive), the GI50 (CCRF-CEM) was > 100 µM (inactive) and the GI50 (COLO 205) was > 100 µM (inactive). The GI50 (DLD-1) was > 100 µM (inactive), the GI50 (DMS-273) was > 100 µM (inactive) and the GI50 (EKVX) was > 100 µM (inactive). For the same compound, the GI50 (HCT-15) was > 100 µM, the GI50 (HL-60) was > 100 µM (inactive) and the GI50 (HOP-18) was 38.4 µM (inactive). The GI50 (HOP-62) was 71.9 µM (inactive), the GI50 (HOP-92) was 30.2 µM (inactive) and the GI50 (HT-29) was 44.6 µM (inactive). For the same compound, the GI50 (IGROV-1) was > 100 µM (inactive), the GI50 (K562) was > 100 µM (inactive) and the GI50 (KM-20L2) was 73.5 µM (inactive). For the same compound, the GI50 (LOX IMVI) was 35.7 µM (inactive), the GI50 (M14) was 88.9 µM (inactive) and the GI50 (M19-MEL) was > 100 µM (inactive). For the same compound, the GI50 (MOLT-4) was > 100 µM (inactive), the GI50 (Malme-3M) was 74.6 µM (inactive) and the GI50 (NCI-H23) was 36.6 µM (inactive). For the same compound, the GI50 (NCI-H460) was 48.6 µM (inactive), the GI50 (OVCAR-3) was 26.9 µM (inactive) and the GI50 (OVCAR-4) was 18.9 µM (inactive). For the same compound, the GI50 (OVCAR-8) was 45 µM (inactive), the GI50 (RPMI-8226) was > 100 µM (inactive) and the GI50 (RXF 393) was 95.5 µM (inactive). The GI50 (SF-295) was 51.1 µM (inactive), the GI50 (SF-539) was > 100 µM (inactive) and the GI50 (SK-MEL-28) was 48.6 µM (inactive). The GI50 (SK-MEL-5) was 56.1 µM (inactive), the GI50 (SK-OV-3) was > 100 µM (inactive) and the GI50 (SN12C) was 88.3 µM (inactive). The GI50 (SNB-19) was > 100 µM (inactive), the GI50 (SNB-75) was 27 µM (inactive) and the GI50 (SNB-78) was > 100 µM (inactive). For the same compound, the GI50 (SW-620) was 64.6 µM (inactive), the GI50 (TK-10) was 49 µM (inactive) and the GI50 (U-251) was 29 µM (inactive). The GI50 (UACC-257) was 86.9 µM (inactive), the GI50 (UACC-62) was > 100 µM (inactive) and the GI50 (UO-31) was 55.6 µM (inactive). The GI50 (XF498) was 21.2 µM (inactive).
In the case of N/C(=N\O)N/N=C\c1ccccc1O, the GI50 (A498) is reported as 8.95 µM (inactive), the GI50 (A549) is reported as 6.01 µM (inactive) and the GI50 (CAKI-1) is reported as 3.84 µM (inactive). For the same compound, the GI50 (CCRF-CEM) was 5.6 µM (inactive), the GI50 (COLO 205) was 5.81 µM (inactive) and the GI50 (DLD-1) was 5.02 µM (inactive). For the same compound, the GI50 (DMS-114) was 4.73 µM (inactive), the GI50 (DMS-273) was 4.38 µM (inactive) and the GI50 (EKVX) was 11.2 µM (inactive). The GI50 (HCC 2998) was 3.24 µM (inactive), the GI50 (HCT-116) was 4.85 µM (inactive) and the GI50 (HCT-15) was 3.48 µM. For the same compound, the GI50 (HL-60) was 0.977 µM (active), the GI50 (HOP-18) was 27.2 µM (inactive) and the GI50 (HOP-62) was 11.2 µM (inactive). The GI50 (HOP-92) was 8.79 µM (inactive), the GI50 (HT-29) was 4.19 µM (inactive) and the GI50 (IGROV-1) was 11.3 µM (inactive). The GI50 (K562) was 3.99 µM (inactive), the GI50 (KM-20L2) was 10.2 µM (inactive) and the GI50 (KM12) was 5.02 µM (inactive). The GI50 (LOX IMVI) was 5.48 µM (inactive), the GI50 (M19-MEL) was 16.6 µM (inactive) and the GI50 (MCF7) was 4.32 µM (inactive). The GI50 (MOLT-4) was 7.13 µM (inactive), the GI50 (Malme-3M) was 22.4 µM (inactive) and the GI50 (NCI-H226) was 16 µM (inactive). The GI50 (NCI-H23) was 7.6 µM (inactive), the GI50 (NCI-H460) was 3.29 µM (inactive) and the GI50 (NCI-H522) was 11.8 µM (inactive). For the same compound, the GI50 (NCI/ADR-RES) was 4.14 µM (inactive), the GI50 (OVCAR-3) was 10.4 µM (inactive) and the GI50 (OVCAR-4) was 4.06 µM (inactive). For the same compound, the GI50 (OVCAR-5) was 37.5 µM (inactive), the GI50 (OVCAR-8) was 3.2 µM (inactive) and the GI50 (RPMI-8226) was 1.48 µM (inactive). The GI50 (RXF 393) was 7.98 µM (inactive), the GI50 (SF-268) was 12.4 µM (inactive) and the GI50 (SF-295) was 4 µM (inactive). For the same compound, the GI50 (SF-539) was 14.5 µM (inactive), the GI50 (SK-MEL-28) was 19.3 µM (inactive) and the GI50 (SK-MEL-2) was 21 µM (inactive). For the same compound, the GI50 (SK-MEL-5) was 10 µM (inactive), the GI50 (SK-OV-3) was 31.3 µM (inactive) and the GI50 (SN12C) was 11.6 µM (inactive). The GI50 (SNB-19) was 18.9 µM (inactive), the GI50 (SNB-75) was 9.48 µM (inactive) and the GI50 (SNB-78) was 21.9 µM (inactive). The GI50 (SW-620) was 13.1 µM (inactive), the GI50 (U-251) was 8.34 µM (inactive) and the GI50 (UACC-257) was 16.2 µM (inactive). The GI50 (UACC-62) was 5.64 µM (inactive), the GI50 (UO-31) was 7.98 µM (inactive) and the GI50 (XF498) was 1.04 µM (active).
